Test results published in ChEMBL document CHEMBL1146367, “Substituted thiophene-anthranilamides as potent inhibitors of human factor Xa” (Bioorg Med Chem, 2007).

Assays:
[1] = Binding affinity to bovine trypsin after 10 mins; parameters: species or system Bos taurus; conditions: read-out: Ki app
Prothrombin = Prothrombin (Homo sapiens, UniProt P00734); assay: Binding affinity to human thrombin after 10 mins; conditions: read-out: Ki app
Plasma = assay: Anticoagulant activity in human plasma assessed as concentration required to double prothrombin time; format: functional, cell-free
Coagulation factor X = Coagulation factor X (Homo sapiens, UniProt P00742); assay: Binding affinity to human factor 10a after 10 mins; conditions: read-out: Ki app
Chain of Coagulation factor X (P00742 41-179 limits assumed): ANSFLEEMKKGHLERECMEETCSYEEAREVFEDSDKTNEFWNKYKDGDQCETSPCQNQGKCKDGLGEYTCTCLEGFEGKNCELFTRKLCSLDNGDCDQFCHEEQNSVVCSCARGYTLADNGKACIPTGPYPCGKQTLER
Chain of Coagulation factor X (P00742 235-488 limits assumed): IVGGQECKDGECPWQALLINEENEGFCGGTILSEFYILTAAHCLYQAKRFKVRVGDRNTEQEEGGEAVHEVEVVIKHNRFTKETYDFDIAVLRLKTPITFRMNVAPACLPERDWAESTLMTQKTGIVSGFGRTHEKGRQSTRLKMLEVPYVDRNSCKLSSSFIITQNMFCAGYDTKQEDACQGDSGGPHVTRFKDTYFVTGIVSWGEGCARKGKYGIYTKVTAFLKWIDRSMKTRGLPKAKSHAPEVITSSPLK

[2] = Half life in Beagle dog at 1 mg/kg, iv; format: ADME, organism-based, Canis lupus familiaris; parameters: dose 1 mg/kg, route intravenous; conditions: in vivo
[3] = Volume of distribution at steady state in Beagle dog at 1 mg/kg, iv; format: ADME, organism-based, Canis lupus familiaris; parameters: dose 1 mg/kg, route intravenous; conditions: in vivo, read-out: Vdss
[4] = Plasma concentration in Beagle dog at 10 mg/kg, po; format: ADME, organism-based, Canis lupus familiaris; parameters: dose 10 mg/kg, route oral
[5] = Clearance in Beagle dog at 1 mg/kg, iv; format: ADME, organism-based, Canis lupus familiaris; parameters: dose 1 mg/kg, route intravenous; conditions: in vivo
[6] = Bioavailability in Beagle dog at 10 mg/kg, po; format: ADME, organism-based, Canis lupus familiaris; conditions: in vivo
[7] = Dissociation constant, pKa of the compound; format: physicochemical

Ki [1] [nM]	Ki (Prothrombin) [nM]	Ki (Coagulation factor X) [nM]	half-life [2] [h]	Vd [3] [L/kg]	Cmax [4] [µM]	clearance [5] [mL/min/kg]	bioavailability [6] [%]	pKa [7]	Compound	Cp (Plasma) [µM]
> 5000	970	0.4	–	–	–	–	–	–	C[S+]([O-])Cc1csc(C(=O)Nc2ccc(Cl)cc2C(=O)Nc2ccc(Cl)cc2)c1Cl (centres undefined)	5.6
> 5000	2300	6.2	–	–	–	–	–	–	O=C(Nc1ccc(Cl)cc1)c1cc(Cl)ccc1NC(=O)c1scc(CN2CCOCC2)c1Cl	59
> 5000	190	0.6	–	–	–	–	–	–	CN(C)CCCN(C)Cc1csc(C(=O)Nc2ccc(Cl)cc2C(=O)Nc2ccc(Cl)cc2)c1Cl	2.9
> 5000	160	0.3	–	–	–	–	–	–	CN(CCN1CCCC1)Cc1csc(C(=O)Nc2ccc(Cl)cc2C(=O)Nc2ccc(Cl)cc2)c1Cl	5
> 5000	> 5000	21	–	–	–	–	–	–	CN1CCN(Cc2ccc3c(Cl)c(C(=O)Nc4ccc(Cl)cc4C(=O)Nc4ccc(Cl)cc4)sc3c2)CC1	–
> 5000	830	0.8	–	–	–	–	–	–	CN(CCO)Cc1csc(C(=O)Nc2ccc(Cl)cc2C(=O)Nc2ccc(Cl)cc2)c1Cl	7
> 5000	3300	3.5	–	–	–	–	–	–	O=C(Nc1ccc(Cl)cc1)c1cc(Cl)ccc1NC(=O)c1scc(Cn2nccn2)c1Cl	83
> 5000	1500	7.5	–	–	–	–	–	–	CCCNCc1sc(C(=O)Nc2ccc(Cl)cc2C(=O)Nc2ccc(Cl)cc2)c(Cl)c1CNCCC	19
> 5000	> 5000	0.82	–	–	–	–	–	–	Cc1c(C(=O)Nc2ccc(Cl)cc2C(=O)Nc2ccc(Cl)cc2)sc2ccccc12	–
> 5000	> 5000	20	–	–	–	–	–	–	CC1(C)OCC(COCc2csc(C(=O)Nc3ccc(Cl)cc3C(=O)Nc3ccc(Cl)cc3)c2Cl)O1 (centres undefined)	–
> 5000	> 5000	> 5000	–	–	–	–	–	–	Cc1cccc2sc(C(=O)Nc3ccc(Cl)cc3C(=O)Nc3ccc(Cl)cc3)c(Cl)c12	–
> 5000	1200	9	–	–	–	–	–	–	CN(C)Cc1c(C(=O)Nc2ccc(Cl)cc2C(=O)Nc2ccc(Cl)cc2)sc2ccccc12	–
> 5000	> 5000	4.8	–	–	–	–	–	–	O=C(Nc1ccc(Cl)cc1)c1cc(Cl)ccc1NC(=O)c1scc(CN2CCSCC2)c1Cl	400
> 5000	> 5000	12	–	–	–	–	–	–	COCCOCc1csc(C(=O)Nc2ccc(Cl)cc2C(=O)Nc2ccc(Cl)cc2)c1Cl	110
> 5000	1100	1.5	–	–	–	–	–	–	CN(CCOCCO)Cc1csc(C(=O)Nc2ccc(Cl)cc2C(=O)Nc2ccc(Cl)cc2)c1Cl	8.8
> 5000	910	1	2	0.7	6.3	5	41	–	CN1CCN(Cc2csc(C(=O)Nc3ccc(Cl)cc3C(=O)Nc3ccc(Cl)cc3)c2Cl)CC1	12
> 5000	2300	5.2	–	–	–	–	–	–	CCOC(=O)CN(C)Cc1csc(C(=O)Nc2ccc(Cl)cc2C(=O)Nc2ccc(Cl)cc2)c1Cl	160
> 5000	1000	5.6	–	–	–	–	–	–	CN1CCN(Cc2cc(Cl)c(C(=O)Nc3ccc(Cl)cc3C(=O)Nc3ccc(Cl)cc3)s2)CC1	13
> 5000	> 5000	34	–	–	–	–	–	–	O=C(Nc1ccc(Cl)cc1)c1cc(Cl)ccc1NC(=O)c1sc(CN2CCOCC2)cc1Cl	> 500
> 5000	550	2.1	–	–	–	–	–	–	O=C(Nc1ccc(Cl)cc1)c1cc(Cl)ccc1NC(=O)c1scc(Cn2cccn2)c1Cl	49
> 5000	4400	12	–	–	–	–	–	–	Cc1sc(C(=O)Nc2ccc(Cl)cc2C(=O)Nc2ccc(Cl)cc2)c(Cl)c1CN1CCN(C)CC1	25
> 5000	> 5000	2	–	–	–	–	–	–	O=C(Nc1ccc(Cl)cc1)c1cc(Cl)ccc1NC(=O)c1scc(Cn2ncnn2)c1Cl	63
> 5000	1000	1.9	–	–	–	–	–	–	O=C(Nc1ccc(Cl)cc1)c1cc(Cl)ccc1NC(=O)c1scc(Cn2ccnc2)c1Cl	18
> 5000	> 5000	1.6	–	–	–	–	–	–	CCN1CCN(Cc2csc(C(=O)Nc3ccc(Cl)cc3C(=O)Nc3ccc(Cl)cc3)c2Cl)CC1	12

Ki [1] [nM]	Ki (Prothrombin) [nM]	Ki (Coagulation factor X) [nM]	half-life [2] [h]	Vd [3] [L/kg]	Cmax [4] [µM]	clearance [5] [mL/min/kg]	bioavailability [6] [%]	pKa [7]	Compound	Cp (Plasma) [µM]
> 5000	> 5000	2.1	–	–	–	–	–	–	CS(=O)(=O)Cc1csc(C(=O)Nc2ccc(Cl)cc2C(=O)Nc2ccc(Cl)cc2)c1Cl	14
> 5000	> 5000	–	–	–	–	–	–	–	O=C(Nc1ccc(Cl)cc1)c1cc(Cl)ccc1NC(=O)c1sc2ccccc2c1Cl	–
> 5000	560	2.7	–	–	–	–	–	8.9	CN(C)CCSCc1csc(C(=O)Nc2ccc(Cl)cc2C(=O)Nc2ccc(Cl)cc2)c1Cl	19
> 5000	1500	10	–	–	–	–	–	–	Cc1c(CN2CCN(C)CC2)sc(C(=O)Nc2ccc(Cl)cc2C(=O)Nc2ccc(Cl)cc2)c1Cl	58
> 5000	> 5000	18	–	–	–	–	–	–	Cc1csc(C(=O)Nc2ccc(Cl)cc2C(=O)Nc2ccc(Cl)cc2)c1Cl	–
> 5000	990	1.4	–	–	–	–	–	–	CN(Cc1csc(C(=O)Nc2ccc(Cl)cc2C(=O)Nc2ccc(Cl)cc2)c1Cl)CC(O)CO (centres undefined)	11
> 5000	2400	5.7	–	–	–	–	–	–	O=C(Nc1ccc(Cl)cc1)c1cc(Cl)ccc1NC(=O)c1scc(COCC(O)CO)c1Cl (centres undefined)	30
> 5000	1000	20	–	–	–	–	–	–	CN1CCN(Cc2c(C(=O)Nc3ccc(Cl)cc3C(=O)Nc3ccc(Cl)cc3)sc3ccccc23)CC1	–
> 5000	1800	4.6	–	–	–	–	–	–	O=C(Nc1ccc(Cl)cc1)c1cc(Cl)ccc1NC(=O)c1scc(CNCCCn2ccnc2)c1Cl	24
> 5000	2700	1.4	–	–	–	–	–	–	O=C(Nc1ccc(Cl)cc1)c1cc(Cl)ccc1NC(=O)c1scc(Cn2ccnn2)c1Cl	15
> 5000	> 5000	24	–	–	–	–	–	–	Cc1cc(Cl)c(C(=O)Nc2ccc(Cl)cc2C(=O)Nc2ccc(Cl)cc2)s1	–
> 5000	310	0.38	–	–	–	–	–	–	CN1CCC(N(C)Cc2csc(C(=O)Nc3ccc(Cl)cc3C(=O)Nc3ccc(Cl)cc3)c2Cl)CC1	3.2
> 5000	> 5000	1.7	–	–	–	–	–	–	O=C(Nc1ccc(Cl)cc1)c1cc(Cl)ccc1NC(=O)c1scc(Cn2cnnn2)c1Cl	29
> 5000	> 5000	0.95	–	–	–	–	–	–	Cc1ccc2c(Cl)c(C(=O)Nc3ccc(Cl)cc3C(=O)Nc3ccc(Cl)cc3)sc2c1	–
> 5000	4400	6	–	–	–	–	–	–	CC(=O)N1CCN(Cc2csc(C(=O)Nc3ccc(Cl)cc3C(=O)Nc3ccc(Cl)cc3)c2Cl)CC1	–
> 5000	> 5000	9.5	–	–	–	–	–	–	O=C(O)CN1CCN(Cc2ccc3c(Cl)c(C(=O)Nc4ccc(Cl)cc4C(=O)Nc4ccc(Cl)cc4)sc3c2)CC1	–
> 5000	160	0.45	–	–	–	–	–	–	CN(C)CCN(C)Cc1csc(C(=O)Nc2ccc(Cl)cc2C(=O)Nc2ccc(Cl)cc2)c1Cl	4.6
> 5000	> 5000	14	–	–	–	–	–	–	CN(C)Cc1ccc2c(Cl)c(C(=O)Nc3ccc(Cl)cc3C(=O)Nc3ccc(Cl)cc3)sc2c1	–
> 5000	510	7.2	–	–	–	–	–	–	O=C(Nc1ccc(Cl)cc1)c1cc(Cl)ccc1NC(=O)c1sc(Cn2ccnc2)cc1Cl	24
> 5000	3600	10	–	–	–	–	–	–	COCCOCCOCc1csc(C(=O)Nc2ccc(Cl)cc2C(=O)Nc2ccc(Cl)cc2)c1Cl	95
> 5000	> 5000	0.8	–	–	–	–	–	–	CSCc1csc(C(=O)Nc2ccc(Cl)cc2C(=O)Nc2ccc(Cl)cc2)c1Cl	> 200
> 5000	3200	3.4	–	–	–	–	–	–	O=C(Nc1ccc(Cl)cc1)c1cc(Cl)ccc1NC(=O)c1scc(CNCCOCCO)c1Cl	20
> 5000	2400	1.6	–	–	–	–	–	–	O=C(Nc1ccc(Cl)cc1)c1cc(Cl)ccc1NC(=O)c1scc(Cn2cncn2)c1Cl	18
> 5000	120	0.52	–	–	–	–	–	–	CCN(CC)CCN(C)Cc1csc(C(=O)Nc2ccc(Cl)cc2C(=O)Nc2ccc(Cl)cc2)c1Cl	3.9
